The target of this assay is URAT1 (Homo sapiens (Human), UniProt Q96S37). The assay is described as follows: Uptake of [14C] uric acid using HEK-URAT1. Type of assay: cell-based. The note with it: for remaining activity at 10 µM: 2 min, [14C] uric acid uptake into URAT1 stably expressed HEK293 cells, 10 μM test compound, 5 μM uric acid, 2 minutes, 37° C., uptake without test compound = 100%, read-out: % control (10 μM). The protocol: More specifically, the test is performed by culturing URAT1 stably expressed HEK293 cells (HEK-URAT1) or HEK293 cells transfected with empty vector (HEK-mock) in a DMEM culture medium in an incubator. Subsequently, 1×10^5 cells are respectively seeded in 24-well culture plate coated with poly D-lysine and the uptake test is started after the culturing.
The cells are washed with a solution for a test warmed to 37° C. and equilibrated. After a buffer solution is removed from the cells, 0.5 mL of an uptake solution containing 5 μM [^14C] uric acid with or without a test compound is respectively added and the cells are incubated. The cell uptake is stopped by adding a Hanks buffer solution and the cells are washed. The cells are lysed with 0.1 N sodium hydroxide and the radioactivity is measured using LSC6100 (Aloka Co., Ltd. Tokyo). Each uptake into HEK-URAT1 is acquired by subtracting uptake into HEK-mock cells from the value of HEK-URAT1, converting the result to per mg protein of cells, and setting the values from the uptake without the test compound as 100%.
URAT1 stably expressed HEK293 cells (HEK-URAT1) or HEK293 cells transfected with empty vector (HEK-mock) were cultured in DMEM culture medium supplemented with 10% fetal bovine serum in an incubator under conditions of 5% carbon dioxide at 37° C. Subsequently, 1×10^5 cells were respectively seeded in 24-well culture plate coated with poly D-lysine and the uptake test was started after the culturing for 3 days.
The uptake experiment of uric acid was performed at 37° C. […] After a buffer solution was removed from the cells, 0.5 mL of an uptake solution containing 5 μM [^14C] uric acid with or without a test compound was respectively added and the cells were incubated for 2 minutes. The cell uptake was stopped by adding an ice-cold Hanks buffer solution without chloride ions and the cells were washed 3 times. The cells were lysed with 0.1 N sodium hydroxide and the radioactivity was measured using LSC6100 (Aloka Co., Ltd. Tokyo). Each uptake into HEK-URAT1 was acquired by subtracting uptake into HEK-mock cells from the value of HEK-URAT1, converting the result to per mg protein of cells, and setting the value from uptake without the test compound as 100%. The uptake in each condition was performed in triplicate and each value was represented by average±standard deviation.
The URAT1 inhibitory action was measured according to the same method as in Example 118.

In general, pIC50 refers to the IC50 on a negative log10 scale, so that one unit is a factor of ten.

pIC50: −log10 of the molar value.

URAT1, sequence (Q96S37 whole entry): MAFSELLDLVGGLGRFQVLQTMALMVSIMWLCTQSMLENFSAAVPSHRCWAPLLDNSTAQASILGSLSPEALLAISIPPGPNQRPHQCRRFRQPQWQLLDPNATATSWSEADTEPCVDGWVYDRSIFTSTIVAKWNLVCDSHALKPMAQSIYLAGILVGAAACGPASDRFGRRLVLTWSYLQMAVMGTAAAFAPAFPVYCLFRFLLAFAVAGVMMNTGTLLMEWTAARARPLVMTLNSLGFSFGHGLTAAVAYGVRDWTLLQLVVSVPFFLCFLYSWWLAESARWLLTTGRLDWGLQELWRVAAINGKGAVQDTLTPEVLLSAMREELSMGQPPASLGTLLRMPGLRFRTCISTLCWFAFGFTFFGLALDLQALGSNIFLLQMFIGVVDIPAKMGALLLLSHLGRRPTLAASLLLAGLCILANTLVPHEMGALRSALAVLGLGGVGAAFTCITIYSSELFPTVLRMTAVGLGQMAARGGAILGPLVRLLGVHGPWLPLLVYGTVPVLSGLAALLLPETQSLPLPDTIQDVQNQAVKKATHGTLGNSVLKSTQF

For the molecule `CC(C)(Sc1ccc2cnsc2c1-c1ccc(C#N)cc1)C(=O)O` [Example 28, 2-[[7-(4-Cyanophenyl)benzo[d]isothiazol-6-yl]thio]-2-methylpropanoic acid], the remaining activity at 10 µM amounted to 0.1%. Still for that read-out and setting: as for `CC(C)c1ccc(-c2c(SC(C)(C)C(=O)O)ccc3cnsc23)cc1` [Example 76, 2-[[7-(4-Isopropylphenyl)benzo[d]isothiazol-6-yl]thio]-2-methylpropanoic acid], the figure is 12.7%; as for `N#Cc1ccc(-c2c(O/C=C/C(=O)O)ccc3ncsc23)cc1` [Example 21, (E)-3-[[7-(4-cyanophenyl)benzo[d]thiazol-6-yl]oxy]acrylic acid], 48.7%. Consider `CC(C)(Sc1ccc2cnsc2c1-c1ccc(C(F)(F)F)cc1)C(=O)O` [Example 78, 2-Methyl-2-[[7-[4-(trifluoromethyl)phenyl]benzo[d]isothiazol-6-yl]thio]propanoic acid], for which the remaining activity at 10 µM came out at 3.2%. Where the note is “inhibition of [14C] uric acid uptake into URAT1 stably expressed HEK293 cells”, this molecule gave a pIC50 of 6.98.

For the origin of these results see patent publication US10173990B2, “URAT1 inhibitor” (Nippon Chemiphar Co., Ltd., priority 2014, dated 2019).
